Where two headings read alike, the source gives them in different places.
What was measured:
[1] = Plasma budesonide pharmacokinetics in asthmatic children, twice a day nebulization over six weeks; assay type: in vivo, human (asthmatic children); settings: for AUC0-inf (geometric mean): nebulized; for AUC0-inf (geometric mean) / Cmax (geometric mean) / Cmax at 42 days / Cmax / half-life at 42 days / Tmax at 42 days / half-life / Tmax: asthmatic children; for Cmax at 42 days / Cmax / half-life at 42 days / Tmax at 42 days / half-life / Tmax / Tmax at 6 weeks: human, plasma, inhaled; for Cmax at 42 days / Cmax: read-out: Cmax (geometric mean); for half-life at 42 days / half-life: read-out: T1/2 (geometric mean); for Tmax at 42 days / Tmax: read-out: Tmax (geometric mean) (converted); for Tmax at 6 weeks: read-out: Tmax averaged over 6 weeks (converted)
Procedure: The budesonide was administered twice a day by a nebulizer for six weeks (42 days). In one subset, budesonide was administered at a dose of 0.25 mg. In the other subset, budesonide was administered at a dose of 0.135 mg.
Tmaxs averaged about 4.3 minutes (SD±0.63 minutes) for the two dosage strengths and time of treatment that ranged from zero to six weeks. […] The Cmaxs and AUCs (area under the curve) obtained for the two different dosage strengths were below levels that would induce side effects due to systemic exposure. […] Murphy et al.'s dosing regimen of 1.0 mg twice a day (bid) was the same as that for Pulmicort Respules when the pharmacokinetics of Pulmicort Respules was being assessed by Astrazeneca (Pharmacokinetics section of Pulmicort Respules label insert).

[2] = tested on: hypothalamus-pituitary-adrenal (HPA) axis; assay: ACTH-induced plasma cortisol levels in children after six weeks of treatment; assay type: in vivo, human (children); settings: doses of Tables 3 and 4
From the text: An important measure of systemic exposure to corticosteroids is the level of endogenous cortisols in the blood. Excess exogenous corticosteroids will suppress natural production of cortisols due to the suppression of the adrenal cortex. […] Both these changes are statistically insignificant.

AUC0-inf (geometric mean) ([1]; 0.135 mg dose twice a day, Day 42): 22,071 pg-min/mL
AUC0-inf (geometric mean) ([1]; 0.135 mg dose twice a day, First Dose): 10,238 pg-min/mL
change of AUC0-inf ([1]; 0.135 mg dose, by week six of dosing): more than doubled
change of Cmax ([1]; 0.135 mg dose, initial dosing to week six): more than tripling
Cmax (geometric mean) ([1]; 0.135 mg dose, Day 42): 0.6721 ng/mL
Cmax (geometric mean) ([1]; 0.135 mg dose, First Dose): 0.2144 ng/mL
Cmax to AUC0-inf ratio ([1]; 0.135 mg dose, standard deviation less than approximately 0.006 min^−1): approximately 0.02 min^−1
AUC0-inf (geometric mean) ([1]; 0.25 mg dose twice a day, Day 42): 33,116 pg-min/mL
AUC0-inf (geometric mean) ([1]; 0.25 mg dose twice a day, Day 42, listed as budesonide): about 33,116 pg-min/mL
AUC0-inf (geometric mean) ([1]; 0.25 mg dose twice a day, First Dose): 20,849 pg-min/mL
AUC0-inf (geometric mean) ([1]; 0.25 mg dose twice a day, First Dose, listed as budesonide): about 20,849 pg-min/mL
Cmax to AUC0-inf ratio ([1]; 0.25 mg dose, standard deviation less than approximately 0.007 min^−1): approximately 0.025 min^−1
change of Cmax ([1]; 0.25 mg, after 42 days (six weeks) of dosing): at least double
increase of AUC0-inf, times its value at first dose ([1]; 0.25 mg, repeat dosing for six weeks): about 1.6 times
Cmax at 42 days ([1]; 0.135 mg, Day 42): ~0.672 ng/mL
Cmax ([1]; 0.135 mg, First Dose): ~0.214 ng/mL
Cmax at 42 days ([1]; 0.25 mg, Day 42): 0.746 ng/mL
Cmax ([1]; 0.25 mg, First Dose): 0.321 ng/mL
half-life at 42 days ([1]; 0.135 mg dose, Day 42): 71.3 min
Tmax at 42 days ([1]; 0.135 mg dose, Day 42): 4.4 min
half-life ([1]; 0.135 mg dose, First Dose): 42.1 min
Tmax ([1]; 0.135 mg dose, First Dose): 4.4 min
Tmax at 6 weeks ([1]; 0.135 mg dose): 4.4 min
half-life at 42 days ([1]; 0.25 mg dose, Day 42): 75.7 min
Tmax at 42 days ([1]; 0.25 mg dose, Day 42): 5 min
half-life ([1]; 0.25 mg dose, First Dose): 155 min
Tmax ([1]; 0.25 mg dose, First Dose): 3.3 min
Tmax at 6 weeks ([1]; 0.25 mg dose): 4.1 min
Structure (SMILES): CCCC1O[C@@H]2C[C@H]3[C@@H]4CCC5=CC(=O)C=C[C@]5(C)[C@H]4[C@@H](O)C[C@]3(C)[C@]2(C(=O)CO)O1 (some centres unmarked) [Budesonide, budesonide]
HPA axis suppression [2]: no evidence of hypothalamus-pituitary-adrenal (HPA) axis suppression

Reference: patent US20090149432A1, “METHODS FOR ADMINISTERING CORTICOSTEROID FORMULATIONS” (priority 2007, published 2009)
